{"source": "paper PMC11062922", "about": "(Nature Chemical Biology, 2023)", "test_in_all_cases": "Kinobeads competition binding profiling, two doses (100 nM and 1 µM);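 further: inhibitor preincubated 45 min at 4 °C in cell lysate, then bead pulldown. Bound protein quantified by label-free mass spectrometry relative to DMSO vehicle control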", "key": {"[1]": {"target": "T1, endogenous kinases and other proteins enriched by Kinobeads from mixed lysates of K-562, COLO-205, MV-4-11, SK-N-BE(2) and OVCAR-8 (Homo sapiens, UniProt P49760)", "T1 construct": "endogenous in cells", "T1 sequence (P49760 whole entry)": "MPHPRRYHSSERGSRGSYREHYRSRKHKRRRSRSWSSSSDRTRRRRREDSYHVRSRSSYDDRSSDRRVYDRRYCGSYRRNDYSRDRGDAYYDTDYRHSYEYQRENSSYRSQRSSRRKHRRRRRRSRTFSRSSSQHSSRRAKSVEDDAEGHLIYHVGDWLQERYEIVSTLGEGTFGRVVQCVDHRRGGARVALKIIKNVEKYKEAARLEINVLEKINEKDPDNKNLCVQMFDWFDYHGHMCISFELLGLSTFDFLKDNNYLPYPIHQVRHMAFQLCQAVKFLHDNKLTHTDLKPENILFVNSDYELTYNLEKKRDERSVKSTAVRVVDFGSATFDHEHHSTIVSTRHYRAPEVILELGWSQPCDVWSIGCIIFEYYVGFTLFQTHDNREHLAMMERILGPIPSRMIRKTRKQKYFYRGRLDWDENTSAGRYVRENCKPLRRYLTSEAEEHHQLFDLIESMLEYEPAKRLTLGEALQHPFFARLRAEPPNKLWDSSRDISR", "conditions": "CLK2"}, "[2]": {"target": "T2, endogenous kinases and other proteins enriched by Kinobeads from mixed lysates of K-562, COLO-205, MV-4-11, SK-N-BE(2) and OVCAR-8 (Homo sapiens, UniProt Q16832)", "T2 construct": "endogenous in cells", "conditions": "DDR2"}, "[3]": {"target": "T3, endogenous kinases and other proteins enriched by Kinobeads from mixed lysates of K-562, COLO-205, MV-4-11, SK-N-BE(2) and OVCAR-8 (Homo sapiens, UniProt P80192)", "T3 construct": "endogenous in cells", "T3 sequence (P80192 whole entry)": "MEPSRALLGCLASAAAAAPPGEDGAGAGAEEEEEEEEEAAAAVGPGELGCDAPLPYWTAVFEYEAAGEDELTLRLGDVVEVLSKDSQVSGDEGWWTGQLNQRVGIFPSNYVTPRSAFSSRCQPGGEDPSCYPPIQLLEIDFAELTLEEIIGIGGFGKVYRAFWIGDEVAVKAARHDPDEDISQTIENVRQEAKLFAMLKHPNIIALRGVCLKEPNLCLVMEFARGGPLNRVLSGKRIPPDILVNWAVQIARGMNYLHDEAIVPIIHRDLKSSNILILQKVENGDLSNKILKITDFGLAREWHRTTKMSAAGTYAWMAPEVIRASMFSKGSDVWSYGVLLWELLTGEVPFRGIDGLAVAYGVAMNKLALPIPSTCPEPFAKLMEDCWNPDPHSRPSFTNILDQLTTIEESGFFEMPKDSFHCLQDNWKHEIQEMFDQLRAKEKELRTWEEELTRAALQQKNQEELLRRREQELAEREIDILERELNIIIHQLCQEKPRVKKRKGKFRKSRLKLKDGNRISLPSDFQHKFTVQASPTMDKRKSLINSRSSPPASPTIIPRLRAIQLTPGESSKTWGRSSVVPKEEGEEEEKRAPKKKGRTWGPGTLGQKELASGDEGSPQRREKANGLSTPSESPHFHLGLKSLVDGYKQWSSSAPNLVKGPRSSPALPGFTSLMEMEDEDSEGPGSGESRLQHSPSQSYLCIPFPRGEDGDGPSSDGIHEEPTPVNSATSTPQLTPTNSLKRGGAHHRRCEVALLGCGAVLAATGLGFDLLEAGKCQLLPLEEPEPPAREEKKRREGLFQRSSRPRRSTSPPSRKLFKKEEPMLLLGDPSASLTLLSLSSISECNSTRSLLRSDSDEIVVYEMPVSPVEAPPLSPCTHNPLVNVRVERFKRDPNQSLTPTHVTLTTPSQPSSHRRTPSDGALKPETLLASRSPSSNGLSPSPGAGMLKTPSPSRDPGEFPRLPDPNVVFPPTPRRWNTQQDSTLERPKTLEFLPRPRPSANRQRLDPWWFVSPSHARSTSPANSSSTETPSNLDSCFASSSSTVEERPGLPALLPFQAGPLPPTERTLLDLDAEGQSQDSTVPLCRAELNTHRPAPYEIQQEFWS", "conditions": "MLK1"}, "[4]": {"target": "T4, endogenous kinases and other proteins enriched by Kinobeads from mixed lysates of K-562, COLO-205, MV-4-11, SK-N-BE(2) and OVCAR-8 (Homo sapiens, UniProt Q9Y6R4)", "T4 construct": "to maximize the representation of endogenous proteins; endogenous in cells", "T4 sequence (Q9Y6R4 whole entry)": "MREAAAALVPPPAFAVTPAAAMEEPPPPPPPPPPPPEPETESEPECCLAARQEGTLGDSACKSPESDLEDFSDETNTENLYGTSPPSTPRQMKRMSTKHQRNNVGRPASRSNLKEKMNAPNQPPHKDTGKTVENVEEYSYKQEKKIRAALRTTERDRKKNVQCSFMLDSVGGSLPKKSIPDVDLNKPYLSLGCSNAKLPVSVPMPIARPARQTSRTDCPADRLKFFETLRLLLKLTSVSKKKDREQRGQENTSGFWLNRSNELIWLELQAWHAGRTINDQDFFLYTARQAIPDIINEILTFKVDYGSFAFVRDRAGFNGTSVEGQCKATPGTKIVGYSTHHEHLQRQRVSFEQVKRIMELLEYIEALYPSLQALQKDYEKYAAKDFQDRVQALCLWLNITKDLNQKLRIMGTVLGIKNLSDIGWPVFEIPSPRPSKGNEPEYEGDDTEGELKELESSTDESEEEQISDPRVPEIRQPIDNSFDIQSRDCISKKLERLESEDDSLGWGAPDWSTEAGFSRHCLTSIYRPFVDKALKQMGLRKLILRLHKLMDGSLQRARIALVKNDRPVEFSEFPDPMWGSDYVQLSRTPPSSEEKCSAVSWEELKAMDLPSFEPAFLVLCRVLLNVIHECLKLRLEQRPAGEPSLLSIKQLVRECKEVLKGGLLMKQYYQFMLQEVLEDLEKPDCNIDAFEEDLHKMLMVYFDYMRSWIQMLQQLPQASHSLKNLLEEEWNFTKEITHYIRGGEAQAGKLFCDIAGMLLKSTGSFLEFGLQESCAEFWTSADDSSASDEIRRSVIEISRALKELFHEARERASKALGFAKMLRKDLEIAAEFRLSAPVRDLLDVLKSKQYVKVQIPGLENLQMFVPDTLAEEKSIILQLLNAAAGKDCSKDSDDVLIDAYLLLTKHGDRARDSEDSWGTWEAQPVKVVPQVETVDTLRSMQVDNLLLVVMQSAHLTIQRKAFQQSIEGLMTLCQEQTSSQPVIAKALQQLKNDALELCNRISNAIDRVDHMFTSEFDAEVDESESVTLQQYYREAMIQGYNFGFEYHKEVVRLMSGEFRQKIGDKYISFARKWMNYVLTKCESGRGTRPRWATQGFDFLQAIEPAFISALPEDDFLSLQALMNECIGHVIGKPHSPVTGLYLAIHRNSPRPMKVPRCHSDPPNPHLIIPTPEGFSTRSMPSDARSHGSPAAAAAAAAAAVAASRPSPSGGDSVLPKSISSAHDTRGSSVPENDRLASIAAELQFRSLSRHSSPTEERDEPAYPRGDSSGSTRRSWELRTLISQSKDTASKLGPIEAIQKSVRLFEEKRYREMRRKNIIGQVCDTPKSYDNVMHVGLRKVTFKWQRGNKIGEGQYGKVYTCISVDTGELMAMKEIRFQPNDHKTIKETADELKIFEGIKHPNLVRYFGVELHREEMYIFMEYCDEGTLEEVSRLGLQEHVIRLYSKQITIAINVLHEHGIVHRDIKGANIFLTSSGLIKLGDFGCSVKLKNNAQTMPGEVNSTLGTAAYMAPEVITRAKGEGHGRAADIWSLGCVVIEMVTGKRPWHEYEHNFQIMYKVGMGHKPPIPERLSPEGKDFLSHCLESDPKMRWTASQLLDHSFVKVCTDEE", "conditions": "MAP3K4"}, "[5]": {"target": "T5, endogenous kinases and other proteins enriched by Kinobeads from mixed lysates of K-562, COLO-205, MV-4-11, SK-N-BE(2) and OVCAR-8 (Homo sapiens, UniProt Q9H2G2)", "T5 construct": "endogenous in cells", "conditions": "SLK"}, "[6]": {"target": "T6, endogenous kinases and other proteins enriched by Kinobeads from mixed lysates of K-562, COLO-205, MV-4-11, SK-N-BE(2) and OVCAR-8 (Homo sapiens, UniProt P49759)", "T6 construct": "endogenous in cells", "conditions": "CLK1"}, "[7]": {"target": "T7, endogenous kinases and other proteins enriched by Kinobeads from mixed lysates of K-562, COLO-205, MV-4-11, SK-N-BE(2) and OVCAR-8 (Homo sapiens, UniProt Q13163)", "T7 construct": "endogenous in cells", "conditions": "MEK5"}, "[8]": {"target": "T8, endogenous kinases and other proteins enriched by Kinobeads from mixed lysates of K-562, COLO-205, MV-4-11, SK-N-BE(2) and OVCAR-8 (Homo sapiens, UniProt Q9HC98)", "T8 construct": "endogenous in cells", "T8 sequence (Q9HC98 whole entry)": "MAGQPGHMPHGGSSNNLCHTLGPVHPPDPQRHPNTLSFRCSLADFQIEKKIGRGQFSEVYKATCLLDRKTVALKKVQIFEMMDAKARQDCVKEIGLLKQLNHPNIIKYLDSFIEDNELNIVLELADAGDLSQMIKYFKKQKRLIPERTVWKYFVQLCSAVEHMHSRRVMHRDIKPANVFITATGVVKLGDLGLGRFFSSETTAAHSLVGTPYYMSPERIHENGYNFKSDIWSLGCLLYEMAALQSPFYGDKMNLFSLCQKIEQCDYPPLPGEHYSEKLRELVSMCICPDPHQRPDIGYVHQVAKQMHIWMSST", "conditions": "NEK6"}, "[9]": {"target": "T9, endogenous kinases and other proteins enriched by Kinobeads from mixed lysates of K-562, COLO-205, MV-4-11, SK-N-BE(2) and OVCAR-8 (Homo sapiens, UniProt P22694)", "T9 construct": "endogenous in cells", "conditions": "PKAC-beta"}, "[10]": {"target": "T10, endogenous kinases and other proteins enriched by Kinobeads from mixed lysates of K-562, COLO-205, MV-4-11, SK-N-BE(2) and OVCAR-8 (Homo sapiens, UniProt P29597)", "T10 construct": "endogenous in cells", "conditions": "TYK2(JH2domain-pseudokinase)"}, "[11]": {"target": "T11, endogenous kinases and other proteins enriched by Kinobeads from mixed lysates of K-562, COLO-205, MV-4-11, SK-N-BE(2) and OVCAR-8 (Homo sapiens, UniProt P54762)", "T11 construct": "endogenous in cells", "conditions": "EPHB1"}, "[12]": {"target": "T12, endogenous kinases and other proteins enriched by Kinobeads from mixed lysates of K-562, COLO-205, MV-4-11, SK-N-BE(2) and OVCAR-8 (Homo sapiens, UniProt Q8TD19)", "T12 construct": "endogenous in cells", "T12 sequence (Q8TD19 whole entry)": "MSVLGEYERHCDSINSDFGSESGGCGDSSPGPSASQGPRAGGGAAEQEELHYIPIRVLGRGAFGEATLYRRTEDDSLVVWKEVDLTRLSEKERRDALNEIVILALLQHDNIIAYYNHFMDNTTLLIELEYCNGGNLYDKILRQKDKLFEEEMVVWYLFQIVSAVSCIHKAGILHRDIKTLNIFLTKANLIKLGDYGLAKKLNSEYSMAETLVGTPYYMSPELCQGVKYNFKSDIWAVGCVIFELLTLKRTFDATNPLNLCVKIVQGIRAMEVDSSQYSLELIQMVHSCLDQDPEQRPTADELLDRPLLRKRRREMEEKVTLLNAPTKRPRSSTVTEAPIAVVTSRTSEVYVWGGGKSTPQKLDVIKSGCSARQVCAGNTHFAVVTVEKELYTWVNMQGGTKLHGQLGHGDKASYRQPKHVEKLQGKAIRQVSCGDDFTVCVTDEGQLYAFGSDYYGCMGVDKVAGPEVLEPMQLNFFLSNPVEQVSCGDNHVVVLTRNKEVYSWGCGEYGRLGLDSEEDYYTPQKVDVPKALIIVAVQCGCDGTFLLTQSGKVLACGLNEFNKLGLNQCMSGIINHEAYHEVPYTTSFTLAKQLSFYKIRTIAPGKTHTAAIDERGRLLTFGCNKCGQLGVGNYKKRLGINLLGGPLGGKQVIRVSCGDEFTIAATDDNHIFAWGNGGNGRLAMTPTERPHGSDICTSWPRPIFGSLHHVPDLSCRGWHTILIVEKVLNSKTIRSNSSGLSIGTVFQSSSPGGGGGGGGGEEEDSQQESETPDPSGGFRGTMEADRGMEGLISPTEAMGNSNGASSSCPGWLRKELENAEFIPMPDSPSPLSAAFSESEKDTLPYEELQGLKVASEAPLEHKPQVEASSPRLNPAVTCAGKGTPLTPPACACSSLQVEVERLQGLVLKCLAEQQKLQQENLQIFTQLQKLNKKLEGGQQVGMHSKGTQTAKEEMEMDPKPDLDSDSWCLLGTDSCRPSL", "conditions": "NEK9"}, "[13]": {"target": "T13, endogenous kinases and other proteins enriched by Kinobeads from mixed lysates of K-562, COLO-205, MV-4-11, SK-N-BE(2) and OVCAR-8 (Homo sapiens, UniProt P51955)", "T13 construct": "endogenous in cells", "conditions": "NEK2"}, "[14]": {"target": "T14, endogenous kinases and other proteins enriched by Kinobeads from mixed lysates of K-562, COLO-205, MV-4-11, SK-N-BE(2) and OVCAR-8 (Homo sapiens, UniProt Q13627)", "T14 construct": "endogenous in cells", "conditions": "DYRK1A"}, "[15]": {"target": "T15, endogenous kinases and other proteins enriched by Kinobeads from mixed lysates of K-562, COLO-205, MV-4-11, SK-N-BE(2) and OVCAR-8 (Homo sapiens, UniProt P51956)", "T15 construct": "endogenous in cells", "conditions": "NEK3"}, "[16]": {"target": "T16, endogenous kinases and other proteins enriched by Kinobeads from mixed lysates of K-562, COLO-205, MV-4-11, SK-N-BE(2) and OVCAR-8 (Homo sapiens, UniProt Q05397)", "T16 construct": "endogenous in cells", "conditions": "read-out: Lestaurtinib Drugmatrix value, Gene Name PTK2"}, "[17]": {"target": "T17, endogenous kinases and other proteins enriched by Kinobeads from mixed lysates of K-562, COLO-205, MV-4-11, SK-N-BE(2) and OVCAR-8 (Homo sapiens, UniProt P42345)", "T17 construct": "endogenous in cells", "conditions": "read-out: Lestaurtinib Drugmatrix value (apparent Kd), Gene Name MTOR; target MTOR; each column = one Lestaurtinib control run_replicate"}, "[18]": {"target": "T18, endogenous kinases and other proteins enriched by Kinobeads from mixed lysates of K-562, COLO-205, MV-4-11, SK-N-BE(2) and OVCAR-8 (Homo sapiens, UniProt P07948)", "T18 construct": "endogenous in cells", "T18 sequence (P07948 whole entry)": "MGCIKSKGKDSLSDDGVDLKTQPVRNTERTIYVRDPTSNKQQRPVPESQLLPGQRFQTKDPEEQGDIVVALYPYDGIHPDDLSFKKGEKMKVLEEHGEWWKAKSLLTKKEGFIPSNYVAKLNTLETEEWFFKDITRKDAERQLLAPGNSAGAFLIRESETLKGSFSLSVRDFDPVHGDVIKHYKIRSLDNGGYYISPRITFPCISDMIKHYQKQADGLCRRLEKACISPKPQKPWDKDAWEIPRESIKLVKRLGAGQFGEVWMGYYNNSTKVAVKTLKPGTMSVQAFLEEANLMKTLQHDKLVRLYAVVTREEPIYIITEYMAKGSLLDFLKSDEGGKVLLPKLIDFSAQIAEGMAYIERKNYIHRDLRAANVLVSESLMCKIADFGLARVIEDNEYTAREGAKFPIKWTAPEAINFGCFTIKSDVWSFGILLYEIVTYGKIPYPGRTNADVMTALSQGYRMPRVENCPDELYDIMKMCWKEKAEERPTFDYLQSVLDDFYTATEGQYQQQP", "conditions": "read-out: Lestaurtinib Drugmatrix value (apparent Kd), Gene Name LYN; target LYN; each column = one Lestaurtinib control run_replicate"}, "[19]": {"target": "T19, endogenous kinases and other proteins enriched by Kinobeads from mixed lysates of K-562, COLO-205, MV-4-11, SK-N-BE(2) and OVCAR-8 (Homo sapiens, UniProt Q13882)", "T19 construct": "endogenous in cells", "conditions": "read-out: Lestaurtinib Drugmatrix value, Gene Name PTK6; target PTK6; one Lestaurtinib control experiment/replicate (R1-R3)"}, "[20]": {"target": "T20, endogenous kinases and other proteins enriched by Kinobeads from mixed lysates of K-562, COLO-205, MV-4-11, SK-N-BE(2) and OVCAR-8 (Homo sapiens, UniProt Q15569)", "T20 construct": "endogenous in cells", "conditions": "read-out: Lestaurtinib Drugmatrix value, Gene Name TESK1; target TESK1; one Lestaurtinib control experiment/replicate (R1-R3)"}, "[21]": {"target": "T21, endogenous kinases and other proteins enriched by Kinobeads from mixed lysates of K-562, COLO-205, MV-4-11, SK-N-BE(2) and OVCAR-8 (Homo sapiens, UniProt Q13188)", "T21 construct": "endogenous in cells", "conditions": "read-out: Lestaurtinib Drugmatrix value, Gene Name STK3; target STK3; one Lestaurtinib control experiment/replicate (R1-R3)"}}, "data": [{"smiles": "COc1cc(Nc2ncc3c(C)nc(-c4cc5ccccc5[nH]4)n3n2)cc(OC)c1OC", "note": "[GW869516X]", "values": [{"measurement": "Kinobeads Data", "setting": "[1]", "value": "no target"}, {"measurement": "Kinobeads Data", "setting": "[2]", "value": "no target"}, {"measurement": "Kinobeads Data", "setting": "[3]", "value": "no target"}, {"measurement": "Kinobeads Data", "setting": "[4]", "value": "no target"}, {"measurement": "Kinobeads Data", "setting": "[5]", "value": "no target"}, {"measurement": "Kinobeads Data", "setting": "[6]", "value": "no target"}, {"measurement": "Kinobeads Data", "setting": "[7]", "value": "no target"}, {"measurement": "Kinobeads Data", "setting": "[8]", "value": "no target"}, {"measurement": "Kinobeads Data", "setting": "[9]", "value": "no target"}, {"measurement": "Kinobeads Data", "setting": "[10]", "value": "no target"}, {"measurement": "Kinobeads Data", "setting": "[11]", "value": "no target"}, {"measurement": "Kinobeads Data", "setting": "[12]", "value": "no target"}, {"measurement": "Kinobeads Data", "setting": "[13]", "value": "no target"}, {"measurement": "Kinobeads Data", "setting": "[14]", "value": "no target"}, {"measurement": "Kinobeads Data", "setting": "[15]", "value": "no target"}]}, {"smiles": "C[C@]12O[C@H](C[C@]1(O)CO)n1c3ccccc3c3c4c(c5c6ccccc6n2c5c31)CNC4=O", "note": "[Lestaurtinib]", "values": [{"measurement": "potency estimated from few doses", "setting": "[16]", "value": 345, "unit": "nM"}, {"measurement": "potency estimated from few doses", "setting": "[17]", "value": 482, "unit": "nM"}, {"measurement": "potency estimated from few doses", "setting": "[18]", "value": 808, "unit": "nM"}, {"measurement": "potency estimated from few doses", "setting": "[19]", "value": 533, "unit": "nM"}, {"measurement": "potency estimated from few doses", "setting": "[20]", "value": 622, "unit": "nM"}, {"measurement": "potency estimated from few doses", "setting": "[21]", "value": 39.1, "unit": "nM"}]}]}
